Laboratory results from US6761898B1, “Combination composition in the form of nutritional supplement or pharmaceutical composition for the prevention and therapeutical treatment of degenerative or inflammatory articular disorders” (Sigma-Tau Industrie Farmaceutiche Riunite S.p.A., priority 1998, dated 2004).

Columns and labels:
[1] = tested on: Type II collagen arthritis in mice; test: Type II collagen arthritis tests; assay type: in vivo; conditions: injected from day one after collagen injection to end of sixth week, L-carnitine 50 and 100 mg/kg, glucosamine 100 and 200 mg/kg, chondroitin sulphate 50 and 100 mg/kg
Procedure: Type II collagen arthritis was induced in mice according to the technique described by Trentham (Trentham D. R., Townes A. S., Kang A. H., J. Exp. Med., 146, 857, 1977). One group of mice was immunised by means of intradermal injections of natural collagen emulsified in complete Freund's adjuvant (Difco Labs., Detroit, U.S.A.) at the base of the tail. Three weeks later these animals were re-injected intraperitoneally with the same dose of emulsified collagen. L-carnitine (50 mg/kg and 100 mg/kg), glucosamine (100 mg/kg and 200 mg/kg) and chondroitin sulphate (50 mg/kg and 100 mg/kg) were injected alone or in combination from day one after the collagen injection up to the end of the sixth week. One group of animals (control) received no treatment. The assessment of the severity of the oedema was done according to its intensity with scores ranging from 1 to 4. […] When L-carnitine was combined with either glucosamine or with chondroitin sulphate an approximately 50% reduction of arthrosis was obtained.

[2] = tested on: carragenin-induced oedema in the rat; test: Carragenin oedema tests; assay type: in vivo; conditions: for effect on severity of the carragenin-induced oedema: substance alone, 50, 100 and 200 mg/kg one hour prior to carragenin
Procedure: Carragenin oedema was induced in the rat by injection of 0.1 ml of a 1% carragenin solution (Sigma Chemical) in the subplantar region of the rat's right paw. The volume of the paw was measured by means of a mercury plethysmograph one hour later and over the 5-hour period following carragenin injection.
L-carnitine, glucosamine and chondroitin sulphate were administered one hour prior to carragenin injection, both alone and in combination at doses of 50, 100 and 200 mg/kg of these compounds.

[3] = dose 100 mg/kg (each substance), 2 hours
[4] = dose 100 mg/kg (each substance), 3 hours
[5] = dose 100 mg/kg (each substance), 4 hours
[6] = dose 200 mg/kg (each substance), 1 hour
[7] = dose 200 mg/kg (each substance), 2 hours
[8] = dose 200 mg/kg (each substance), 3 hours
[9] = dose 200 mg/kg (each substance), 4 hours

Compound	inhibitory effect on the development of the typical signs of arthritis [1]	% Reduction of oedema at various hours after carragenin injection [2, 3]	% Reduction of oedema at various hours after carragenin injection [2, 4]	% Reduction of oedema at various hours after carragenin injection [2, 5]	% Reduction of oedema at various hours after carragenin injection [2, 6]	% Reduction of oedema at various hours after carragenin injection [2, 7]	% Reduction of oedema at various hours after carragenin injection [2, 8]	% Reduction of oedema at various hours after carragenin injection [2, 9]	effect on severity of the carragenin-induced oedema [2]	% Reduction of oedema at various hours after carragenin injection ([2]; dose 100 mg/kg (each substance), 1 hour)
N[C@H]1C(O)O[C@H](CO)[C@@H](O)[C@@H]1O (some centres unmarked) [Glucosamine, glucosamine]	neither L-carnitine, glucosamine nor chondroitin sulphate when administered alone had any inhibitory effect	5 ± 0.3%	5 ± 0.5%	5 ± 0.6%	5 ± 0.2%	10 ± 0.9%	10 ± 1.1%	5 ± 0.5%	failed to modify the severity	–
chondroitin sulphate	neither L-carnitine, glucosamine nor chondroitin sulphate when administered alone had any inhibitory effect	10 ± 0.8%	5 ± 0.4%	5 ± 0.1%	10 ± 1.9%	15 ± 1.1%	20 ± 1.8%	10 ± 1.2%	failed to modify the severity	10 ± 0.3%
C[N+](C)(C)C[C@H](O)CC(=O)[O-] [L-carnitine]	neither L-carnitine, glucosamine nor chondroitin sulphate when administered alone had any inhibitory effect	–	–	–	–	10 ± 0.2%	5 ± 0.3%	–	failed to modify the severity	–
